In ChEMBL document CHEMBL4482315, “In vivo imaging of sulfotransferases” (2013):

How the values were obtained:
Sulfotransferase 2A1 [1] = target: T1, Sulfotransferase 2A1 (Homo sapiens, UniProt Q06520); assay: Substrate activity at SULT2A1 (unknown origin) expressed in baculovirus infected Sf9 cells assessed as substrate Vmax incubated for 15 mins using [35S-]PAPS as sulfate donor by TLC analysis; settings: sf9, 0.25 h, BLD = below limit of detection
T1 sequence (Q06520 whole entry): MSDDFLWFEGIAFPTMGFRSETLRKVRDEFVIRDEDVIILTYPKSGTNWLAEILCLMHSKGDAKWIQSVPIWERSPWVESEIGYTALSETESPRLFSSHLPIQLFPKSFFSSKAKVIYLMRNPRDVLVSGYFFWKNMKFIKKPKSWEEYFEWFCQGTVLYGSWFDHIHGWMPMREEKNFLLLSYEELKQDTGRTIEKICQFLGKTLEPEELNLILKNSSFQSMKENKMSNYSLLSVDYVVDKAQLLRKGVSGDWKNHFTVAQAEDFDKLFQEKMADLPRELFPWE

Sulfotransferase 2A1 [2] = target: T1, Sulfotransferase 2A1; assay: Substrate activity at SULT2A1 (unknown origin) expressed in baculovirus infected Sf9 cells assessed as substrate Km incubated for 15 mins using [35S-]PAPS as sulfate donor by TLC analysis; settings: sf9, 0.25 h, BLD = below limit of detection
Sulfotransferase 1E1 [3] = target: T2, Sulfotransferase 1E1 (Homo sapiens, UniProt P49888); assay: Substrate activity at SULT1E1 (unknown origin) expressed in baculovirus infected Sf9 cells assessed as substrate Vmax/Km ratio level incubated for 15 mins using [35S-]PAPS as sulfate donor by TLC analysis; settings: sf9, 0.25 h
T2 sequence (P49888 whole entry): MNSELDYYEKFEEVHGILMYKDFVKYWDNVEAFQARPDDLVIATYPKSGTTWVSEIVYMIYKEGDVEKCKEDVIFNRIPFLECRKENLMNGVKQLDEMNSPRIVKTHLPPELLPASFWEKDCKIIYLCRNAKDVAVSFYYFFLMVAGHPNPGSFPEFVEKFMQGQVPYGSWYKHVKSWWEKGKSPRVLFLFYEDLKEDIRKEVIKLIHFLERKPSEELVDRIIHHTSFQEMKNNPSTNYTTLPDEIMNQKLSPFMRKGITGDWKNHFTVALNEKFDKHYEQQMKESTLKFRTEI

Sulfotransferase 2A1 [4] = target: T1, Sulfotransferase 2A1; assay: Substrate activity at SULT2A1 (unknown origin) expressed in baculovirus infected Sf9 cells assessed as substrate Vmax/Km ratio incubated for 15 mins using [35S-]PAPS as sulfate donor by TLC analysis; settings: sf9, 0.25 h, BLD = below limit of detection
Sulfotransferase 1E1 [5] = target: T2, Sulfotransferase 1E1; assay: Substrate activity at SULT1E1 (unknown origin) expressed in baculovirus infected Sf9 cells assessed as substrate Km incubated for 15 mins using [35S-]PAPS as sulfate donor by TLC analysis; settings: sf9, 0.25 h, BLD = below limit of detection
Sulfotransferase 1E1 [6] = target: T2, Sulfotransferase 1E1; assay: Substrate activity at SULT1E1 (unknown origin) expressed in baculovirus infected Sf9 cells assessed as substrate Vmax incubated for 15 mins using [35S-]PAPS as sulfate donor by TLC analysis; settings: sf9, 0.25 h, BLD = below limit of detection
Sulfotransferase 1A1 [7] = target: T3, Sulfotransferase 1A1 (Homo sapiens, UniProt P50225); assay: Substrate activity at SULT1A1 (unknown origin) expressed in baculovirus infected Sf9 cells assessed as substrate Km incubated for 15 mins using [35S-]PAPS as sulfate donor by TLC analysis; settings: sf9, 0.25 h, BLD = below limit of detection
T3 sequence (P50225 whole entry): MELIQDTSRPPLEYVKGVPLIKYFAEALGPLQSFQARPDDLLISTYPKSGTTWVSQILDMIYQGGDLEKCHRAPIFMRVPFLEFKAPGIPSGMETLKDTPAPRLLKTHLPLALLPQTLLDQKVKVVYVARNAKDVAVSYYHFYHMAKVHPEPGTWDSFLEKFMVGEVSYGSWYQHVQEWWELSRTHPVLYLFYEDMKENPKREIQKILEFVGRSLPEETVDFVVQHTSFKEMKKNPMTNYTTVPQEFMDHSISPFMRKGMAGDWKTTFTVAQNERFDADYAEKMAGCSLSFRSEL

Sulfotransferase 1A1 [8] = target: T3, Sulfotransferase 1A1; assay: Substrate activity at SULT1A1 (unknown origin) expressed in baculovirus infected Sf9 cells assessed as substrate Vmax/Km ratio incubated for 15 mins using [35S-]PAPS as sulfate donor by TLC analysis; settings: sf9, 0.25 h, BLD = below limit of detection
Sulfotransferase 1A1 [9] = target: T3, Sulfotransferase 1A1; assay: Substrate activity at SULT1A1 (unknown origin) expressed in baculovirus infected Sf9 cells assessed as substrate Vmax incubated for 15 mins using [35S-]PAPS as sulfate donor by TLC analysis; settings: sf9, 0.25 h, BLD = below limit of detection
[10] = Drug uptake in lung of non-smoker human subject at 10 mCi by microPET imaging method; assay type: ADME
[11] = Drug uptake in kidney of smoker human subject at 10.5 mCi by microPET imaging method; assay type: ADME
[12] = Drug uptake in lung of Sprague-Dawley rat with lung inflammation assessed as sulfated form formation at 2 to 2.5 mCi dosed via injection measured after 10 to 15 mins post dose by microPET imaging method; assay type: ADME, organism-based; settings: in vivo
[13] = Drug uptake in lung of smoker human subject at 10.5 mCi by microPET imaging method; assay type: ADME
[14] = Drug uptake in liver of non-smoker human subject at 10 mCi by microPET imaging method; assay type: ADME
[15] = Drug uptake in kidney of non-smoker human subject at 10 mCi by microPET imaging method; assay type: ADME
[16] = Drug uptake in liver of smoker human subject at 10.5 mCi by microPET imaging method; assay type: ADME

Structure (SMILES) | Vmax (Sulfotransferase 2A1 [1]) | Km (Sulfotransferase 2A1 [2]) | Vmax/Km (Sulfotransferase 1E1 [3]) | Vmax/Km (Sulfotransferase 2A1 [4]) | Km (Sulfotransferase 1A1 [7]) | Vmax/Km (Sulfotransferase 1A1 [8]) | Vmax (Sulfotransferase 1A1 [9]) | also measured
Cc1nc2cc(O)ccc2s1 | Bld | Bld | 0.3 | Bld | – | – | – | –
Oc1ccc2[nH]cnc2c1 | Bld | Bld | – | Bld | – | – | – | Km (Sulfotransferase 1E1 [5]): Bld; Vmax (Sulfotransferase 1E1 [6]): Bld; Vmax/Km (Sulfotransferase 1E1 [3]; BLD = below limit of detection): Bld
Oc1ccc2ccccc2c1 [BETANAPHTHOL] | – | – | 0.57 | – | – | – | – | –
CN(C)c1ccc(-c2nc3cc(O)ccc3s2)cc1 | Bld | Bld | 2.47 | Bld | – | – | – | –
Oc1ccc2sccc2c1 | Bld | Bld | 0.08 | Bld | – | – | – | –
CNc1ccc(-c2nc3ccc(O)cc3s2)cc1 [PITTSBURGH COMPOUND B UNLABELLED] | Bld | Bld | 1.28 | Bld | Bld | Bld | Bld | –
CNc1ccc(-c2nc3cc(O)ccc3s2)cc1 | Bld | Bld | 1.39 | Bld | – | – | – | –
Oc1ccc2[nH]ccc2c1 | Bld | Bld | – | Bld | – | – | – | Km (Sulfotransferase 1E1 [5]): Bld; Vmax (Sulfotransferase 1E1 [6]): Bld; Vmax/Km (Sulfotransferase 1E1 [3]; BLD = below limit of detection): Bld
COc1ccc(-c2nc3ccc(O)cc3s2)cc1 | Bld | Bld | 2.19 | Bld | Bld | Bld | Bld | –
Oc1ccc2occc2c1 | Bld | Bld | 0.01 | Bld | – | – | – | –
Oc1ccc2nc(-c3ccc(F)cc3)sc2c1 | Bld | Bld | 4.52 | Bld | Bld | Bld | Bld | –
[11CH3]Nc1ccc(-c2nc3ccc(O)cc3s2)cc1 [PITTSBURGH COMPOUND B] | – | – | – | – | – | – | – | Drug uptake [10]: Active; Drug uptake [11]: Active; Drug uptake [12]: Active; Drug uptake [13]: Active; Drug uptake [14]: Active; Drug uptake [15]: Active; Drug uptake [16]: Active
N#Cc1ccc(-c2nc3ccc(O)cc3s2)cc1 | Bld | Bld | 17.1 | Bld | Bld | Bld | Bld | –
CS(=O)(=O)c1ccc(-c2nc3ccc(O)cc3s2)cc1 | Bld | Bld | 2.69 | Bld | Bld | Bld | Bld | –
Oc1ccc2nc(-c3ccccc3)sc2c1 | Bld | Bld | 3.22 | Bld | – | – | – | –
Nc1ccc(-c2nc3ccc(O)cc3s2)cc1 | Bld | Bld | 1.7 | Bld | Bld | Bld | Bld | –
Oc1ccc2ncoc2c1 | Bld | Bld | 0.006 | Bld | – | – | – | –
Cc1nc2ccc(O)cc2s1 | Bld | Bld | 0.47 | Bld | – | – | – | –
CC(=O)Nc1ccc(-c2nc3ccc(O)cc3s2)cc1 | Bld | Bld | 0.87 | Bld | Bld | Bld | Bld | –
Oc1ccc2cc[nH]c2c1 | Bld | Bld | – | Bld | – | – | – | Km (Sulfotransferase 1E1 [5]): Bld; Vmax (Sulfotransferase 1E1 [6]): Bld; Vmax/Km (Sulfotransferase 1E1 [3]; BLD = below limit of detection): Bld
Oc1ccc2ncsc2c1 | Bld | Bld | 0.04 | Bld | – | – | – | –
O=[N+]([O-])c1ccc(-c2nc3ccc(O)cc3s2)cc1 | Bld | Bld | 29.2 | Bld | Bld | Bld | Bld | –
CN(C)c1ccc(-c2nc3ccc(O)cc3s2)cc1 | Bld | Bld | 1.11 | Bld | Bld | Bld | Bld | –
Oc1ccc2nc(-c3ccc(I)cc3)sc2c1 | Bld | Bld | 5.64 | Bld | Bld | Bld | Bld | –
Oc1ccc2ccoc2c1 | Bld | Bld | 0.03 | Bld | – | – | – | –
Oc1ccc2ccsc2c1 | Bld | Bld | 0.25 | Bld | – | – | – | –
